Results: patent US4018754A, “Novel polypeptides having ACTH-like action” (Shionogi & Co., Ltd., priority 1974, dated 1977)
Like-named read-outs stand apart in the source and are kept apart here. Where a SMILES comes first, the peptide text is derived from it. Where no end group is shown, it is not given here. [ ]: non-standard residue; d: D form. Aib = CC(C)(N)C(=O)O

Key:
rats [1] = details: i.m. for 2 days
Description: The effect on adrenal growth and thymus involution was determined in the following manner: peptides were intramuscularly injected into rats weighing 100-150 g at a dose of 20μg and 100 μg/rat/day for 2 days, respectively. The rats were then submitted to autopsy 24 hours after the last injection, and then the adrenal and thymus were weighed respectively.

hypophysectomized rat [2] = system: hypophysectomized rat
Description: The adrenal-stimulating activity by the intramuscular administration to hypophysectomized rat was also determined, where a peptide preparation was injected into the thigh muscle and a blood sample was collected from the abdominal aorta 30 minutes after the injection. Throughout the experiment, the USP Corticotropin Reference Standard was used as a standard and the production of 11-hydroxycorticosteroids was determined by the fluorophotometric method of Peterson [J. Biol. Chem. 225 25 (1975)].

hypophysectomized rat [3] = system: hypophysectomized rat; remark: listed apart in the source
rats [4] = test: Protracted action: time course of plasma 11-OHCS level after i.m. or i.v. injection; format: in vivo; details: rats 100-120 g, 5 μg/rat intramuscularly or intravenously
Description: The protracted action of the present polypeptides, e.g., [Aib^1,Lys^17,18,19 ]--ACTH(1-19)--NH2, was studied using rats weighing 100-120 g. Synthetic human ACTH, Cortrosyn--Z^R (zinc complex suspension of ACTH(1-24)--OH)and [Gly^1 ]--ACTH(1-18)--NH2 were used for comparison. The petides were intramuscularly or intravenously injected into rats at a dose of 5 μg/rat, and then the production of 11-hydroxycorticosteroids (11-OHCS) was determined. Time course of 11-OHCS level in the plasma when the peptides were administered intramuscularly and intravenously is shown in FIG. 2, respectively. […] Cortrosyn-Z is the only ACTH preparation which has been used for therapeutical purpose, though it has rather strong melanocyte stimulating activity (c.f. Table 1). […] In FIG. 2, Cortrosyn-Z (suspension of a zinc complex of ACTH(1-24)--OH) is not shown, because the suspension cannot be used through intravenous route.

Description for melanocyte: The in vivo melanocyte-stimulating activity was determined according to the method of A. Tanaka described in Endocrinol.

Molecule	effects on adrenal growth and thymus involution (in words) (rats [1])	Adrenal-stimulating activity i.m. (relative potency) (hypophysectomized rat [2]; hypophysectomized rat, thigh muscle injection, blood sample 30 minutes after injection, USP Corticotropin Reference Standard as standard)	Adrenal-stimulating activity i.v. (relative potency) (hypophysectomized rat [3]; hypophysectomized rat, femoral vein injection, blood sample 30 minutes after injection, USP Corticotropin Reference Standard as standard)	Adrenal-stimulating activity i.m. (relative potency) (hypophysectomized rat [2]; rat, in vivo)	Melanocyte-stimulating activity in vivo (b), relative potency (melanocyte)	Adrenal-stimulating activity i.v. (relative potency) (hypophysectomized rat [3]; rat, in vivo, iv)	Protracted adrenal-stimulating action (time course of plasma 11-OHCS level) (rats [4]; Lys^17,18,19 ]--ACTH(1-19)--NH2)	Protracted adrenal-stimulating action (time course of plasma 11-OHCS level) (rats [4])
Native ACTH: native corticotropin (ACTH), native hormone used for comparison (SYSMEHFRWGKPVGKKRRPVKVYPNGAEDESAEAFPLEF; Corticotropin; UniProt P01189 138-176, looked up)	very weak	4.0	1.0					
CSCC[C@H](NC(=O)[C@H](CO)NC(=O)[C@H](Cc1ccc(O)cc1)NC(=O)C(C)(C)N)C(=O)N[C@@H](CCC(=O)O)C(=O)N[C@@H](Cc1c[nH]cn1)C(=O)N[C@@H](Cc1ccccc1)C(=O)N[C@@H](CCCNC(=N)N)C(=O)N[C@@H](Cc1c[nH]c2ccccc12)C(=O)NCC(=O)N[C@@H](CCCCN)C(=O)N1CCC[C@H]1C(=O)N[C@H](C(=O)NCC(=O)N[C@@H](CCCCN)C(=O)N[C@@H](CCCCN)C(=O)N[C@@H](CCCCN)C(=O)N[C@@H](CCCCN)C(N)=O)C(C)C [[Aib^1,Lys^17,18]-ACTH(1-18)-NH2, [Aib^1,Lys^17,18]--ACTH(1-18)--NH2, reference compound] (H-[Aib]YSMEHFRWGKPVGKKKK-NH2)				9.4	0.82	9.3		
CSCC[C@H](NC(=O)[C@H](CO)NC(=O)[C@H](Cc1ccc(O)cc1)NC(=O)C(C)(C)N)C(=O)N[C@@H](CCC(=O)O)C(=O)N[C@@H](Cc1c[nH]cn1)C(=O)N[C@@H](Cc1ccccc1)C(=O)N[C@@H](CCCNC(=N)N)C(=O)N[C@@H](Cc1c[nH]c2ccccc12)C(=O)NCC(=O)N[C@@H](CCCCN)C(=O)N1CCC[C@H]1C(=O)N[C@H](C(=O)NCC(=O)N[C@@H](CCCCN)C(=O)N[C@@H](CCCCN)C(=O)N[C@@H](CCCCN)C(=O)N[C@@H](CCCCN)C(=O)N[C@@H](CCCCN)C(=O)N[C@@H](CCCCN)C(N)=O)C(C)C [[Aib^1,Lys^17,18,19,20]-ACTH(1-20)-NH2, Aib--Tyr--Ser--Met--Glu--His--Phe--Arg--Trp--Gly--Lys--Pro--Val--Gly--Lys- -Lys--Lys--Lys--Lys--Lys--NH2] (H-[Aib]YSMEHFRWGKPVGKKKKKK-NH2)				10.7	0.15	6.3		
CSCC[C@H](NC(=O)[C@H](CO)NC(=O)[C@H](Cc1ccc(O)cc1)NC(=O)C(C)(C)N)C(=O)N[C@@H](CCC(=O)O)C(=O)N[C@@H](Cc1c[nH]cn1)C(=O)N[C@@H](Cc1ccccc1)C(=O)N[C@@H](CCCNC(=N)N)C(=O)N[C@@H](Cc1c[nH]c2ccccc12)C(=O)NCC(=O)N[C@@H](CCCCN)C(=O)N1CCC[C@H]1C(=O)N[C@H](C(=O)NCC(=O)N[C@@H](CCCCN)C(=O)N[C@@H](CCCCN)C(=O)N[C@@H](CCCNC(=N)N)C(=O)N[C@@H](CCCNC(=N)N)C(N)=O)C(C)C [[Aib^1]-ACTH(1-18)-NH2, [Aib^1]--ACTH(1-18)--NH2, reference compound] (H-[Aib]YSMEHFRWGKPVGKKRR-NH2)				9.9	1.00	4.1		
GYSMEHFRWGKPVGKKRR-NH2 [[Gly^1]-ACTH(1-18)-NH2, [Gly^1]--ACTH(1-18)--NH2, reference compound]	very weak			1.0	0.11	1.0		
CSCC[C@H](NC(=O)[C@H](CO)NC(=O)[C@H](Cc1ccc(O)cc1)NC(=O)C(C)(C)N)C(=O)N[C@@H](CCC(=O)O)C(=O)N[C@@H](Cc1c[nH]cn1)C(=O)N[C@@H](Cc1ccccc1)C(=O)N[C@@H](CCCNC(=N)N)C(=O)N[C@@H](Cc1c[nH]c2ccccc12)C(=O)NCC(=O)N[C@@H](CCCCN)C(=O)N1CCC[C@H]1C(=O)N[C@H](C(=O)NCC(=O)N[C@@H](CCCCN)C(=O)N[C@@H](CCCCN)C(=O)N[C@@H](CCCCN)C(=O)N[C@@H](CCCCN)C(=O)N[C@@H](CCCCN)C(N)=O)C(C)C [[Aib^1,Lys^17,18,19]-ACTH(1-19)-NH2, Aib--Tyr--Ser--Met--Glu--His--Phe--Arg--Trp--Gly--Lys--Pro--Val--Gly--Lys- -Lys--Lys--Lys--Lys--NH2] (H-[Aib]YSMEHFRWGKPVGKKKKK-NH2)				7.8	0.11	5.7	very protracted action	
CSCC[C@H](NC(=O)[C@H](CO)NC(=O)[C@H](Cc1ccc(O)cc1)NC(=O)C(C)(C)N)C(=O)N[C@@H](CCC(=O)O)C(=O)N[C@@H](Cc1c[nH]cn1)C(=O)N[C@@H](Cc1ccccc1)C(=O)N[C@@H](CCCNC(=N)N)C(=O)N[C@@H](Cc1c[nH]c2ccccc12)C(=O)NCC(=O)N[C@@H](CCCCN)C(=O)N1CCC[C@H]1C(=O)N[C@H](C(=O)NCC(=O)N[C@@H](CCCCN)C(=O)N[C@@H](CCCCN)C(=O)N[C@@H](CCCCN)C(=O)N[C@@H](CCCCN)C(=O)N[C@@H](CCCCN)C(N)=O)C(C)C [[Aib^1, Lys^17,18,19]--ACTH(1-19)-- NH2] (H-[Aib]YSMEHFRWGKPVGKKKKK-NH2)								protracted to almost the same extent as that produced by Cortrosyn-Z
